# According to ChEMBL document CHEMBL4715697, “Synthesis and biological activity of benzamide DNA minor groove binders” (2016):
# Assays:
# Format in all cases: functional
# SN12C = assay: Growth inhibition of human SN12C cells assessed as cell growth at 0.01 uM incubated for 48 hrs by sulforhodamine B assay relative to control; settings: read-out: Activity
# UACC-62 [1] = assay: Growth inhibition of human UACC-62 cells assessed as cell growth at 1 uM incubated for 48 hrs by sulforhodamine B assay relative to control; settings: read-out: Activity
# LOX IMVI = assay: Growth inhibition of human LOX IMVI cells incubated for 48 hrs by sulforhodamine B assay
# HCT-15 = assay: Growth inhibition of human HCT-15 cells assessed as cell growth at 100 uM incubated for 48 hrs by sulforhodamine B assay relative to control; settings: read-out: Activity
# SF-295 = assay: Growth inhibition of human SF-295 cells assessed as cell growth at 100 uM incubated for 48 hrs by sulforhodamine B assay relative to control; settings: read-out: Activity
# 786-0 [2] = assay: Growth inhibition of human 786-0 cells assessed as cell growth at 0.01 uM incubated for 48 hrs by sulforhodamine B assay relative to control; settings: read-out: Activity
# COLO 205 = assay: Growth inhibition of human COLO 205 cells assessed as cell growth at 0.1 uM incubated for 48 hrs by sulforhodamine B assay relative to control; settings: read-out: Activity
# OVCAR-3 = assay: Growth inhibition of human OVCAR-3 cells assessed as cell growth at 1 uM incubated for 48 hrs by sulforhodamine B assay relative to control; settings: read-out: Activity
# SR = assay: Growth inhibition of human SR cells assessed as cell growth at 100 uM incubated for 48 hrs by sulforhodamine B assay relative to control; settings: read-out: Activity
# SK-MEL-5 = assay: Growth inhibition of human SK-MEL-5 cells assessed as cell growth at 1 uM incubated for 48 hrs by sulforhodamine B assay relative to control; settings: read-out: Activity
# HCT-116 [3] = assay: Growth inhibition of human HCT-116 cells assessed as cell growth at 0.1 uM incubated for 48 hrs by sulforhodamine B assay relative to control; settings: read-out: Activity
# OVCAR-4 = assay: Growth inhibition of human OVCAR-4 cells assessed as cell growth at 0.01 uM incubated for 48 hrs by sulforhodamine B assay relative to control; settings: read-out: Activity
# A498 = assay: Growth inhibition of human A498 cells assessed as cell growth at 0.01 uM incubated for 48 hrs by sulforhodamine B assay relative to control; settings: read-out: Activity
# RPMI-8226 = assay: Growth inhibition of human RPMI-8226 cells assessed as cell growth at 0.1 uM incubated for 48 hrs by sulforhodamine B assay relative to control; settings: read-out: Activity
# A549 = assay: Growth inhibition of human A549/ATCC cells incubated for 48 hrs by sulforhodamine B assay
# NCI-H226 = assay: Growth inhibition of human NCI-H226 cells incubated for 48 hrs by sulforhodamine B assay
# TK-10 = assay: Growth inhibition of human TK-10 cells assessed as cell growth at 100 uM incubated for 48 hrs by sulforhodamine B assay relative to control; settings: read-out: Activity
# MDA-MB-435 = assay: Growth inhibition of human MDA-MB-435 cells assessed as cell growth at 1 uM incubated for 48 hrs by sulforhodamine B assay relative to control; settings: read-out: Activity
# Malme-3M = assay: Growth inhibition of human Malme-3M cells incubated for 48 hrs by sulforhodamine B assay
# NCI-H460 = assay: Growth inhibition of human NCI-H460 cells assessed as cell growth at 100 uM incubated for 48 hrs by sulforhodamine B assay relative to control; settings: read-out: Activity
# UACC-62 [4] = assay: Growth inhibition of human UACC-62 cells assessed as cell growth at 0.1 uM incubated for 48 hrs by sulforhodamine B assay relative to control; settings: read-out: Activity
# 786-0 [5] = assay: Growth inhibition of human 786-0 cells incubated for 48 hrs by sulforhodamine B assay
# HCT-116 [6] = assay: Growth inhibition of human HCT-116 cells assessed as cell growth at 100 uM incubated for 48 hrs by sulforhodamine B assay relative to control; settings: read-out: Activity
# SW-620 = assay: Growth inhibition of human SW-620 cells assessed as cell growth at 100 uM incubated for 48 hrs by sulforhodamine B assay relative to control; settings: read-out: Activity
# SK-OV-3 = assay: Growth inhibition of human SK-OV-3 cells assessed as cell growth at 0.01 uM incubated for 48 hrs by sulforhodamine B assay relative to control; settings: read-out: Activity
# ACHN = assay: Growth inhibition of human ACHN cells assessed as cell growth at 1 uM incubated for 48 hrs by sulforhodamine B assay relative to control; settings: read-out: Activity
# K562 [7] = assay: Growth inhibition of human K562 cells assessed as cell growth at 100 uM incubated for 48 hrs by sulforhodamine B assay relative to control; settings: read-out: Activity
# K562 [8] = assay: Growth inhibition of human K562 cells assessed as cell growth at 0.1 uM incubated for 48 hrs by sulforhodamine B assay relative to control; settings: read-out: Activity
# EKVX = assay: Growth inhibition of human EKVX cells incubated for 48 hrs by sulforhodamine B assay
# CCRF-CEM = assay: Growth inhibition of human CCRF-CEM cells assessed as cell growth at 100 uM incubated for 48 hrs by sulforhodamine B assay relative to control; settings: read-out: Activity
# NCI-H23 = assay: Growth inhibition of human NCI-H23 cells assessed as cell growth at 0.1 uM incubated for 48 hrs by sulforhodamine B assay relative to control; settings: read-out: Activity
# NCI-H322M = assay: Growth inhibition of human NCI-H322M cells incubated for 48 hrs by sulforhodamine B assay
# HT-29 = assay: Growth inhibition of human HT-29 cells incubated for 48 hrs by sulforhodamine B assay
# [9] = read-out: LC50 (the source's name)
# [10] = read-out: pLC50 (the source's name) (converted)
structure (smiles),measurement,setting,value
CC(=O)Nc1cc(CO[Si](C)(C)C(C)(C)C)cc(NC(=O)c2ccc(C(=O)Nc3cccc(NC(=O)CCCN(C)C)c3)cc2)c1,growth at 0.01 µM,SN12C,96%
same,growth at 1 µM,UACC-62 [1],99%
same,GI50,LOX IMVI; read-out: GI50,> 75 µM
same,LC50 (concentration giving 50% cell kill),LOX IMVI; read-out: LC50,> 75 µM
same,TGI,LOX IMVI; read-out: TGI,> 75 µM
same,GI50,LOX IMVI; read-out: pGI50 (converted),> 75.9 µM
same,LC50 (concentration giving 50% cell kill),LOX IMVI; read-out: pLC50 (converted),> 75.9 µM
same,TGI,LOX IMVI; read-out: pTGI,> 75.9 µM
same,growth at 100 µM,HCT-15,82%
same,growth at 100 µM,SF-295,88%
same,growth at 0.01 µM,786-0 [2],97%
same,growth at 0.1 µM,COLO 205,100%
same,growth at 1 µM,OVCAR-3,109%
same,growth at 100 µM,SR,116%
same,growth at 1 µM,SK-MEL-5,98%
same,growth at 0.1 µM,HCT-116 [3],99%
same,growth at 0.01 µM,OVCAR-4,95%
same,growth at 0.01 µM,A498,70%
same,growth at 0.1 µM,RPMI-8226,101%
same,GI50,A549; read-out: GI50,> 75 µM
same,CC50,A549; [9],> 75 µM
same,TGI,A549; read-out: TGI,> 75 µM
same,GI50,A549; read-out: pGI50 (converted),> 75.9 µM
same,CC50,A549; [10],> 75.9 µM
same,TGI,A549; read-out: pTGI,> 75.9 µM
same,GI50,NCI-H226; read-out: GI50,> 75 µM
same,CC50,NCI-H226; [9],> 75 µM
same,TGI,NCI-H226; read-out: TGI,> 75 µM
same,GI50,NCI-H226; read-out: pGI50 (converted),> 75.9 µM
same,CC50,NCI-H226; [10],> 75.9 µM
same,TGI,NCI-H226; read-out: pTGI,> 75.9 µM
same,growth at 100 µM,TK-10,98%
same,growth at 1 µM,MDA-MB-435,94%
same,GI50,Malme-3M; read-out: GI50,36.3 µM
same,LC50 (concentration killing 50% of cells),Malme-3M; read-out: LC50,> 75 µM
same,TGI,Malme-3M; read-out: TGI,> 75 µM
same,GI50,Malme-3M; read-out: pGI50 (converted),36.3 µM
same,LC50 (concentration killing 50% of cells),Malme-3M; read-out: pLC50 (converted),> 75.9 µM
same,TGI,Malme-3M; read-out: pTGI,> 75.9 µM
same,growth at 100 µM,NCI-H460,89%
same,growth at 0.1 µM,UACC-62 [4],94%
same,GI50,786-0 [5]; read-out: GI50,> 75 µM
same,LC50,786-0 [5]; read-out: LC50,> 75 µM
same,TGI,786-0 [5]; read-out: TGI,> 75 µM
same,GI50,786-0 [5]; read-out: pGI50 (converted),> 75.9 µM
same,LC50,786-0 [5]; read-out: pLC50 (converted),> 75.9 µM
same,TGI,786-0 [5]; read-out: pTGI,> 75.9 µM
same,growth at 100 µM,HCT-116 [6],85%
same,growth at 100 µM,SW-620,100%
same,growth at 0.01 µM,SK-OV-3,98%
same,growth at 1 µM,ACHN,98%
same,growth at 100 µM,K562 [7],94%
same,growth at 0.1 µM,K562 [8],96%
same,GI50,EKVX; read-out: GI50,> 75 µM
same,LC50,EKVX; read-out: LC50,> 75 µM
same,TGI,EKVX; read-out: TGI,> 75 µM
same,GI50,EKVX; read-out: pGI50 (converted),> 75.9 µM
same,LC50,EKVX; read-out: pLC50 (converted),> 75.9 µM
same,TGI,EKVX; read-out: pTGI,> 75.9 µM
same,growth at 100 µM,CCRF-CEM,112%
same,growth at 0.1 µM,NCI-H23,98%
same,GI50,NCI-H322M; read-out: GI50,> 75 µM
same,CC50,NCI-H322M; [9],> 75 µM
same,TGI,NCI-H322M; read-out: TGI,> 75 µM
same,GI50,NCI-H322M; read-out: pGI50 (converted),> 75.9 µM
same,CC50,NCI-H322M; [10],> 75.9 µM
same,TGI,NCI-H322M; read-out: pTGI,> 75.9 µM
same,GI50,HT-29; read-out: GI50,> 75 µM
same,CC50,HT-29; [9],> 75 µM
same,TGI,HT-29; read-out: TGI,> 75 µM
same,GI50,HT-29; read-out: pGI50 (converted),> 75.9 µM
same,CC50,HT-29; [10],> 75.9 µM
same,TGI,HT-29; read-out: pTGI,> 75.9 µM
